Assays:
HBV = assay: Inhibition of HBV replication in HepG2.215 cells (HBsAg/HBeAg by ELISA, HBV gene by fluorescent quantitative PCR); assay type: cell-based, Hepatitis B Virus; conditions: for Expression of HBV gene / HBeAg / HBsAg: normalized, 100% for control group; for HBeAg / HBsAg: HepG2.215 supernatant, 48 h
Description: The drug of Example 4 is used. The concentration of Adefovir Dipivoxil was 1 μmol, and the vinegar-baked bupleurum root polysaccharides are at a medium dosage in corresponding dosage, one-half of the medium dosage is a low dosage, and twice of the medium dosage is a high dosage.
The experiment is started with HepG2.215 cells that were grown to 80% confluence.
The cells were assigned to 5 groups, comprising a blank control group, a treatment group with Adefovir Dipivoxil, a treatment group with Adefovir Dipivoxil in combination with high dosage of vinegar-baked bupleurum root polysaccharides, a treatment group with Adefovir Dipivoxil in combination with medium dosage of vinegar-baked bupleurum root polysaccharides, and a treatment group with Adefovir Dipivoxil in combination with low dosage of vinegar-baked bupleurum root polysaccharides. Culturing for 48 h after administration, the supernatant is collected, the expression of the HBV gene is determined by fluorescent quantitative PCR, and the HBsAg and HBeAg concentrations are determined by ELISA.
The experiment is started with HepG2.215 cells that are grown to 80% confluence. The cells were assigned to 5 groups, comprising a blank control group, a treatment group with Tenofovir, a treatment group with Tenofovir in combination with high, medium, and low dosage of vinegar-baked bupleurum root polysaccharides. The concentration of Tenofovir is 0.8 μmol, the medium dosage of vinegar-baked bupleurum root polysaccharides is a corresponding dosage in Example 7, one-half of which is the low dosage, and twice of which is the high dosage. Culturing for 48 h after administration, the supernatant is collected, the expression of the HBV gene is determined by fluorescent quantitative PCR, and the HBsAg and HBeAg concentrations are determined by ELISA.

[1] = In vivo distribution of Entecavir in mice; conditions: Entecavir 0.1 mg/kg, 5 consecutive days, combination with high dosage of polysaccharides (as Example 5), n = 6
Description: The bupleurum root polysaccharides enhance the distribution of Entecavir in liver, and reduce its distribution in other tissues.
The drug of Example 5 is used.
20 male mice are fasted for one night, but free accessed to water before the experiment. The animals are divided into three groups according to body weight, including a treatment group with Entecavir, and treatment groups with bupleurum root polysaccharides combined with Entecavir. The animals are administered for 5 consecutive days. The dosage of Entecavir is 0.1 mg/kg, and the corresponding dosage of bupleurum root polysaccharides in Example 5 is a high dosage, one-half of which is a low dosage. The animals are sacrificed after the last administration and the blood, heart, liver, spleen, lung, kidney, intestine, stomach, bone marrow, and brain are taken. 100 μL of plasma is directly precipitated by adding 800 μL of acetonitrile, and the supernatant is frozen and centrifuged. 500 μL of the supernatant is blow dried with nitrogen, and 100 μL of the mobile phase is added for reconstitution, and injected for analysis. 0.1 g of the tissue is added with 1 mL of water and homogenized. The homogenate is treated following the treatment method for the plasma.
Effect of bupleurum root polysaccharides on in vivo distribution of Entecavir (ng/mL)

[2] = drug modified with monophosphorylation, compared with the control group; cited from earlier work
[3] = Plasma and tissue distribution of Lamivudine in rats, liquid chromatography; assay type: in vivo, rat; conditions: Lamivudine 15 mg/kg, n = 6
Description: The pharmaceutical composition of the present invention enhances the Lamivudine level in the rat liver. Grouping of the test animals and administration are the same as the Example 1 (except that the drug used is the same as Example 3). The dosage of Lamivudine is 15 mg/kg, and the bupleurum root polysaccharides are at a corresponding dosage. The Lamivudine content was determined by liquid chromatography. 0.1 mL of plasma is added with 10 μL of 0.2 mol ammonium acetate, and then with 1 mL of acetonitrile, vortexed, and centrifuged. The supernatant is collected and injected for determination. 0.1 g of the tissue sample is added with 1 mL of physiological saline, homogenized, and treated following the same method as for the plasma sample. The Lamivudine contents in the plasma and tissue sample are determined.

[4] = Tissue distribution of oxymatrine (OM) and its metabolite matrine (M) in rats, LC-MS; assay type: in vivo, rat; conditions: po, OM 54 mg/kg single administration, sampled at 20, 60, 240 min, n = 6
Description: The pharmaceutical composition of the present invention enhances the distribution of oxymatrine (OM) in the rat liver. 36 rats are acclimated for 7 days, and randomized into a treatment group with oxymatrine (OM) alone, and a treatment group with a combined drug of the present invention (drug in Example 1). Wherein, the dosage of oxymatrine (OM) is 54 mg/kg, and the bupleurum root polysaccharides are used at a corresponding dosage in Example 1. After a single administration, blood is sampled from the abdominal aorta respectively at 20 min, 60 min, and 240 min. The rat is sacrificed, from which the liver, spleen, lung, kidney, and heart are removed. […] The concentrations of oxymatrine (OM) and its metabolite (M) are determined by LC-MS, the content in the tissue and the area under the curve are calculated.

[5] = test system: duck hepatitis B virus (DHBV); assay: Effect against duck hepatitis B virus in DHBV-infected ducklings; assay type: in vivo; conditions: DHBV-infected ducks; Telbivudine 80 mg·kg^−1 alone, gastric perfusion twice a day, 10 days; 100% for control group
[6] = HepG2.215, 48 h, text summary of Table 4
[7] = Adefovir Dipivoxil 1 μmol alone

Q: Which results are given for CC(C)(C)C(=O)OCOP(=O)(COCCn1cnc2c(N)ncnc21)OCOC(=O)C(C)(C)C [Adefovir Dipivoxil]?
A: Expression of HBV gene (HBV; HepG2.215, 48 h, Adefovir Dipivoxil 1 μmol alone): 50 ± 5.3%; inhibition rate for gene expression (HBV; [6]): 50%; inhibition rate on the replication of HBV (HBsAg, HBeAg) (HBV; [6]): 60-65%; HBeAg (HBV; [7]): 40 ± 3.4%; HBsAg (HBV; [7]): 35 ± 1.2%

Q: For C=C1[C@H](CO)[C@@H](O)C[C@@H]1n1cnc2c(=O)[nH]c(N)nc21 [Entecavir], which “Entecavir concentration, Marrow” value ([1]; mouse bone marrow) is on record?
A: 18.9 ng/L

Q: And the “Entecavir concentration, Heart” value ([1]; mouse heart)?
A: 26.14 ng/L

Q: And the “Entecavir concentration, Instine” value ([1]; mouse intestine)?
A: 24.3 ng/L

Q: And the “Entecavir concentration, Kidney” value ([1]; mouse kidney)?
A: 27.5 ng/L

Q: And the “Entecavir concentration, Liver” value ([1]; mouse liver)?
A: 26.8 ng/L

Q: And the “Entecavir concentration, Lung” value ([1]; mouse lung)?
A: 26.3 ng/L

Q: And the “Entecavir concentration, Plasma” value ([1]; mouse plasma)?
A: 30.6 ng/L

Q: And the “Entecavir concentration, Spleen” value ([1]; mouse spleen)?
A: 28.4 ng/L

Q: And the “Entecavir concentration, Stomach” value ([1]; mouse stomach)?
A: 25.6 ng/L

Q: With Nc1ccn([C@@H]2CS[C@H](CO)O2)c(=O)n1 [Lamivudine] as the molecule, how does the “increase of AUC” value [2] read?
A: 11.2 times

Q: And the “increase of the concentration of Lamivudine in the liver” value [2]?
A: 7.7 times

Q: And the AUC ([3]; rat heart, read-out: AUC of Lamivudine, Heart)?
A: 26.8 ng·h/mL

Q: What about the AUC ([3]; rat kidney, read-out: AUC of Lamivudine, Kidney) of the same molecule?
A: 24.3 ng·h/mL

Q: What about the AUC ([3]; rat liver, read-out: AUC of Lamivudine, Liver) of the same molecule?
A: 27.3 ng·h/mL

Q: What about the AUC ([3]; rat lung, read-out: AUC of Lamivudine, Lung) of the same molecule?
A: 23.1 ng·h/mL

Q: What about the AUC ([3]; rat plasma, read-out: AUC of Lamivudine, Plasma) of the same molecule?
A: 25.4 ng·h/mL

Q: And the AUC ([3]; rat spleen, read-out: AUC of Lamivudine, Spleen)?
A: 30.2 ng·h/mL

Q: And the AUC ([3]; rat stomach, read-out: AUC of Lamivudine, Stomach)?
A: 28.8 ng·h/mL

Q: Which AUC ([4]; rat heart, read-out: AUC of oxymatrine, Heart) does the source give for O=C1CCC[C@@H]2[C@H]3CCC[N+]4([O-])CCC[C@@H](CN12)[C@@H]34 (some centres unmarked) [OM, oxymatrine] here?
A: 125 ng·h/mL

Q: And the AUC ([4]; rat kidney, read-out: AUC of oxymatrine, Kidney)?
A: 69.7 ng·h/mL

Q: And the AUC ([4]; rat liver, read-out: AUC of oxymatrine, Liver)?
A: 125 ng·h/mL

Q: What about the AUC ([4]; rat lung, read-out: AUC of oxymatrine, Lung) of the same molecule?
A: 366 ng·h/mL

Q: And the AUC ([4]; rat plasma, read-out: AUC of oxymatrine, Plasma)?
A: 520 ng·h/mL

Q: What about the AUC ([4]; rat spleen, read-out: AUC of oxymatrine, Spleen) of the same molecule?
A: 64.9 ng·h/mL

Q: Which “Expression of HBV gene” value [5] does the source give for Cc1cn([C@@H]2C[C@@H](O)[C@H](CO)O2)c(=O)[nH]c1=O [Telbivudine] here?
A: 50.5 ± 5.3%

Q: And the HBeAg [5]?
A: 37.2 ± 3.4%

Q: What about the HBsAg [5] of the same molecule?
A: 30 ± 1.3%

Q: What does the source list for C[C@H](Cn1cnc2c(N)ncnc21)OCP(=O)(O)O [Tenofovir]?
A: Expression of HBV gene (HBV; HepG2.215, 48 h, Tenofovir 0.8 μmol alone): 45.2 ± 5.3%; HBeAg (HBV; Tenofovir 0.8 μmol alone): 39.8 ± 2.4%; HBsAg (HBV; Tenofovir 0.8 μmol alone): 33.2 ± 1.2%
